Measured values as given in patent US10059715B2, “Acid addition salt of ibrutinib” (ratiopharm GmbH, priority 2014, dated 2018).
Converted amounts (≈) assume the structure as drawn. Structures can show the parent of a compound that is named as a salt. One block for each compound: values may come before it.

Assays:
[1] = physchem; details: 37 °C, thermodynamic from solid
[2] = Comparison of solubilities at pH values relevant for the gastrointestinal tract
[3] = at about pH 8; cited from earlier work
[4] = 20 mMol NaAc solution, pH 4.5, aqueous buffer

solubility at 1 h [1, 4]: 20 µg/mL
solubility ([2]; pH 1.2 (0.1M HCl), 15 min, listed as crystalline ibrutinib hydrochloride, hydrochloride): 7370 µg/mL
solubility ([2]; pH 1.2 (0.1M HCl), 1 h, hydrochloride): 7720 µg/mL
solubility ([2]; pH 1.2 (0.1M HCl), 24 h, hydrochloride): 7380 µg/mL
solubility ([2]; pH 4.5 (20 mMol NaAc), 15 min): 10 µg/mL
solubility ([2]; pH 4.5 (20 mMol NaAc), 24 h, 37° C., hydrochloride): 460 µg/mL
solubility ([2]; pH 6.8 (50 mMol KH2PO4), 15 min): 10 µg/mL
solubility ([2]; pH 6.8 (50 mMol KH2PO4), 1 h, 37° C., hydrochloride): 50 µg/mL
solubility ([2]; pH 6.8 (50 mMol KH2PO4), 24 h, 37° C., hydrochloride): 410 µg/mL
Compound: C=CC(=O)N1CCC[C@@H](n2nc(-c3ccc(Oc4ccccc4)cc3)c3c(N)ncnc32)C1 [HCl, ibrutinib hydrochloride]

solubility at 15 min [1, 4]: 10 µg/mL (≈ 22.7 µM)
solubility at 15 min ([1]; 50 mMol KH2PO4 solution, pH 6.8, aqueous buffer): 10 µg/mL (≈ 22.7 µM)
solubility ([2]; pH 1.2 (0.1M HCl), 15 min, listed as ibrutinib base (form A)): 2070 µg/mL (≈ 4700 µM)
solubility ([2]; pH 1.2 (0.1M HCl), 1 h): 2640 µg/mL (≈ 5990 µM)
solubility ([2]; pH 1.2 (0.1M HCl), 24 h): 2640 µg/mL (≈ 5990 µM)
solubility ([2]; pH 4.5 (20 mMol NaAc), 1 h, 37° C.): 10 µg/mL (≈ 22.7 µM)
solubility ([2]; pH 4.5 (20 mMol NaAc), 24 h, 37° C.): 10 µg/mL (≈ 22.7 µM)
solubility (in words) ([2]; pH 4.5, time not stated): substantially insoluble
solubility ([2]; pH 6.8 (50 mMol KH2PO4), 1 h, 37° C.): 10 µg/mL (≈ 22.7 µM)
solubility ([2]; pH 6.8 (50 mMol KH2PO4), 24 h, 37° C.): 10 µg/mL (≈ 22.7 µM)
solubility (in words) ([2]; pH 6.8, time not stated): substantially insoluble
Compound: C=CC(=O)N1CCC[C@@H](n2nc(-c3ccc(Oc4ccccc4)cc3)c3c(N)ncnc32)C1 [base, 1-[(3R)-3[4-Amino-3-(4-phenoxyphenyl)-1H-pyrazolo[3,4-d]pyrimidin-1-yl]piperidin-1-yl]prop-2-en-1one]
observed aqueous solubility [3]: about 0.013 mg/ml
